ChEMBL document CHEMBL3593202, “Design, Synthesis, and Characterization of 3-(Benzylidene)indolin-2-one Derivatives as Ligands for α-Synuclein Fibrils” (J Med Chem, 2015)
Active and inactive are the calls of the source. No cut-off for these calls is given here.

Assays:
[1] = molecular target: T1, Microtubule-associated protein tau (Homo sapiens, UniProt P10636); assay: Displacement of Thio-T from human recombinant tau (243 to 375) expressed in Escherichia coli BL21(DE3)RIL after 1.5 hrs by fluorescence assay
[2] = molecular target: T2, Amyloid-beta precursor protein (Homo sapiens, UniProt P05067); assay: Displacement of Thio-T from synthetic amyloid beta (1 to 42) (unknown origin) after 1.5 hrs by fluorescence assay
Alpha-synuclein [3] = molecular target: T3, Alpha-synuclein (Homo sapiens, UniProt P37840); assay: Displacement of Thio-T from recombinant alpha-synuclein (unknown origin) expressed in Escherichia coli after 1.5 hrs by fluorescence assay
[4] = Lipophilicity, log P of the compound; format: physicochemical; conditions: octanol/water
[5] = molecular target: T2, Amyloid-beta precursor protein; assay: Binding affinity amyloid beta (1 to 42) (unknown origin) expressed in Escherichia coli after 1 hr by scintillation counting
Alpha-synuclein [6] = molecular target: T3, Alpha-synuclein; assay: Binding affinity to recombinant alpha-synuclein (unknown origin) expressed in Escherichia coli after 1 hr by scintillation counting
[7] = molecular target: T1, Microtubule-associated protein tau; assay: Binding affinity human recombinant tau (243 to 375) expressed in Escherichia coli BL21(DE3)RIL after 1 hr by scintillation counting
[8] = molecular target: T2, Amyloid-beta precursor protein; assay: Binding affinity to amyloid beta in alzheimer's diseased human brain tissue at 5 uM after 20 mins by fluorescence microscopic analysis

T2 sequence (P05067 whole entry): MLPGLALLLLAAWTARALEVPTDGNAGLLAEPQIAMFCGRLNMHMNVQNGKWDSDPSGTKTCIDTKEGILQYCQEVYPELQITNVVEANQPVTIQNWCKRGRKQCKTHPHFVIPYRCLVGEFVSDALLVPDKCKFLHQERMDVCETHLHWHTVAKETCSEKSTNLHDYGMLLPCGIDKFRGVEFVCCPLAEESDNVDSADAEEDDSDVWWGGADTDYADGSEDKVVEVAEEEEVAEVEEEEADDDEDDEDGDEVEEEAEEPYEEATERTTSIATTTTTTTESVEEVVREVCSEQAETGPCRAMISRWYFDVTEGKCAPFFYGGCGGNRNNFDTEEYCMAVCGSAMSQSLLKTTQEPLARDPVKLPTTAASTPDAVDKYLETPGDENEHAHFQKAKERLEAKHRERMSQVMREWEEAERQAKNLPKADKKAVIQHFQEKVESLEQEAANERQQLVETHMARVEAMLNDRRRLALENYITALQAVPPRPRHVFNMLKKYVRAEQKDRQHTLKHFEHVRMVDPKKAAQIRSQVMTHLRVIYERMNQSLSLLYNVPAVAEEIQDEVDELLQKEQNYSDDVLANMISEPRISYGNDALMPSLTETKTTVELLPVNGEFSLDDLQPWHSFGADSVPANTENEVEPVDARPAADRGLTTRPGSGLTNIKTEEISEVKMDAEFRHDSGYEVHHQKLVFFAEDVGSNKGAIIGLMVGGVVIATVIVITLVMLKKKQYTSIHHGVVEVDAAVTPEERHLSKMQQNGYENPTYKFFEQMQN
T1 sequence (P10636 whole entry): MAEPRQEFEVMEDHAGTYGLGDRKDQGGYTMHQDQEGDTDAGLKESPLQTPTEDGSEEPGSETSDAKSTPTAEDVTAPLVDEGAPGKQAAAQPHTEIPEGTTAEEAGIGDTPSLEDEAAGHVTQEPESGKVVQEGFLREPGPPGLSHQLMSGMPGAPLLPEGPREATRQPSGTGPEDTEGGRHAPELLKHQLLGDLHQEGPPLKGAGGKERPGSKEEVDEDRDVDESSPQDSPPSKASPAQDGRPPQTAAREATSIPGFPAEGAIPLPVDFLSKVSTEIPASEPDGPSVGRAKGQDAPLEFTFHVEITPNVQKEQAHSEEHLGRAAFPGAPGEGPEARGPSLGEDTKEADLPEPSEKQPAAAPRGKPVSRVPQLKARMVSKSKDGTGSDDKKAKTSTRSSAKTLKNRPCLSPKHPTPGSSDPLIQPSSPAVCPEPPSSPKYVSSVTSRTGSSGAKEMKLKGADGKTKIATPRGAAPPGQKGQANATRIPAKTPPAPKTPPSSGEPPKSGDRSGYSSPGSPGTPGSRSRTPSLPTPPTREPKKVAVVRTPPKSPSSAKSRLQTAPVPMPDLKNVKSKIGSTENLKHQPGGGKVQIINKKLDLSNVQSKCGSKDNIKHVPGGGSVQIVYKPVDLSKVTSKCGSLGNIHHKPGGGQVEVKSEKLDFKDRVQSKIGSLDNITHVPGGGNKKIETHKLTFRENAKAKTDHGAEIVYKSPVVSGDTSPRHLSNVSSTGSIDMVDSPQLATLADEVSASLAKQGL

Row | SMILES | Ki [1] [nM] | Ki [2] [nM] | Ki (Alpha-synuclein [3]) [nM] | logP [4] | Kd [5] [nM] | Kd (Alpha-synuclein [6]) [nM] | Kd [7] [nM] | Activity [8]
1 | O=C1Nc2ccccc2/C1=C/c1ccc([N+](=O)[O-])cc1 | 362 | 325 | 347 | – | – | – | – | –
2 | CN(C)c1ccc(/C=C2\C(=O)N(Cc3ccccc3)c3ccccc32)cc1 | 798 | 260 | 144 | – | – | – | – | –
3 | CN(C)c1ccc(/C=C2\C(=O)N(Cc3ccncc3)c3ccccc32)cc1 | 364 | – | 150 | – | – | – | – | –
4 | CN(C)c1ccc(/C=C/C=C2\C(=O)N(Cc3ccncc3)c3ccccc32)cc1 | 188 | – | 92 | – | – | – | – | –
5 | O=C1Nc2ccccc2/C1=C\c1ccc([N+](=O)[O-])cc1 | 528 | 439 | 622 | – | – | – | – | –
6 | O=C1/C(=C\c2ccc([N+](=O)[O-])cc2)c2ccccc2N1Cc1ccccc1 | 1760 | 460 | 483 | – | – | – | – | –
7 | O=C1/C(=C/c2ccc([N+](=O)[O-])cc2)c2ccccc2N1Cc1ccccc1 | 1410 | 695 | 959 | – | – | – | – | –
8 | O=C1Nc2ccccc2/C1=C/C=C/c1ccc([N+](=O)[O-])cc1 | 27.1 | 36.2 | 14.6 | – | – | – | – | –
9 | O=C1Nc2ccccc2/C1=C\C=C\c1ccc([N+](=O)[O-])cc1 | 209 | 60 | 211 | – | – | – | – | –
10 | O=C1/C(=C\C=C\c2ccc([N+](=O)[O-])cc2)c2ccccc2N1Cc1ccccc1 | 121 | 214 | 25 | – | – | – | – | –
11 | O=C1/C(=C/C=C/c2ccc([N+](=O)[O-])cc2)c2ccccc2N1Cc1ccccc1 | 590 | 235 | 193 | – | – | – | – | –
12 | COc1ccc(CN2C(=O)/C(=C\C=C\c3ccc([N+](=O)[O-])cc3)c3ccccc32)cc1 | 72.4 | 131 | 12.9 | – | – | – | – | –
13 | COc1ccc(CN2C(=O)/C(=C/C=C/c3ccc([N+](=O)[O-])cc3)c3ccccc32)cc1 | 318 | 138 | 81.9 | – | – | – | – | –
14 | COc1cccc(CN2C(=O)/C(=C\C=C\c3ccc([N+](=O)[O-])cc3)c3ccccc32)c1 | 229 | 110 | 3.8 | – | – | – | – | –
15 | COc1cccc(CN2C(=O)/C(=C/C=C/c3ccc([N+](=O)[O-])cc3)c3ccccc32)c1 | 355 | 265 | 64.7 | – | – | – | – | –
16 | COc1ccc(CN2C(=O)/C(=C\C=C\c3ccc([N+](=O)[O-])cc3)c3ccccc32)cc1OC | 152 | 73.6 | 3.5 | – | – | – | – | –
17 | COc1ccc(CN2C(=O)/C(=C/C=C/c3ccc([N+](=O)[O-])cc3)c3ccccc32)cc1OC | 630 | 130 | 53.3 | – | – | – | – | –
18 | O=C1/C(=C\C=C\c2ccc([N+](=O)[O-])cc2)c2ccccc2N1Cc1ccc(OCCF)cc1 | 80.1 | 142 | 2.1 | 4.18 | – | – | – | –
19 | O=C1/C(=C/C=C/c2ccc([N+](=O)[O-])cc2)c2ccccc2N1Cc1ccc(OCCF)cc1 | 456 | 125 | 76.1 | – | – | – | – | –
20 | O=C1/C(=C\C=C\c2ccc([N+](=O)[O-])cc2)c2ccccc2N1Cc1ccc(OCC[18F])cc1 | – | – | – | – | 271 | 8.9 | 50 | –
21 | CN(C)c1ccc(/C=C2\C(=O)Nc3ccccc32)cc1 (mixture of isomers) | 261 | 91.6 | 84.4 | – | – | – | – | –
22 | CN(C)c1ccc(/C=C2\C(=O)N(c3ccccc3)c3ccccc32)cc1 (mixture of isomers) | 790 | 179 | 290 | – | – | – | – | –
23 | CN(C)c1ccc(/C=C2\C(=O)Nc3ncccc32)cc1 (mixture of isomers) | 191 | 40 | 124 | – | – | – | – | –

Row | SMILES | Ki [1] [nM] | Ki [2] [nM] | Ki (Alpha-synuclein [3]) [nM] | logP [4] | Kd [5] [nM] | Kd (Alpha-synuclein [6]) [nM] | Kd [7] [nM] | Activity [8]
24 | CN(C)c1ccc(/C=C2\C(=O)Nc3ccc(O)cc32)cc1 (mixture of isomers) | 212 | 94.8 | 407 | – | – | – | – | –
25 | COc1ccc(CN2C(=O)/C(=C\c3ccc(N(C)C)cc3)c3ccccc32)cc1 (mixture of isomers) | 432 | 251 | 114 | – | – | – | – | –
26 | CCOC(=O)N1C(=O)/C(=C\c2ccc(N(C)C)cc2)c2ccccc21 (mixture of isomers) | 1120 | 140 | 343 | – | – | – | – | –
27 | CN(C)c1ccc(/C=C2\C(=O)N(Cc3ccccc3)c3ncccc32)cc1 (mixture of isomers) | 859 | 190 | 350 | – | – | – | – | –
28 | COc1ccc(CN2C(=O)/C(=C\c3ccc(N(C)C)cc3)c3cccnc32)cc1 (mixture of isomers) | 853 | 113 | 79.5 | – | – | – | – | –
29 | O=C1Nc2ccccc2/C1=C/C=C/c1ccccc1 (mixture of isomers) | 522 | 267 | 207 | – | – | – | – | –
30 | COc1ccc(/C=C/C=C2\C(=O)Nc3ccccc32)cc1 (mixture of isomers) | 169 | 126 | 61.1 | – | – | – | – | –
31 | CN(C)c1ccc(/C=C/C=C2\C(=O)Nc3ccccc32)cc1 (mixture of isomers) | 53.7 | 27.6 | 40.7 | – | – | – | – | Active
32 | CN(C)c1ccc(/C=C/C=C2\C(=O)Nc3ncccc32)cc1 (mixture of isomers) | 35.1 | 15.3 | 11.5 | – | – | – | – | –
33 | CN(C)c1ccc(/C=C/C=C2\C(=O)Nc3ccc(O)cc32)cc1 (mixture of isomers) | 48 | 37.1 | 54 | – | – | – | – | –
34 | O=C1/C(=C\C=C\c2ccccc2)c2ccccc2N1Cc1ccccc1 (mixture of isomers) | 682 | 703 | 227 | – | – | – | – | –
35 | COc1ccc(/C=C/C=C2\C(=O)N(Cc3ccccc3)c3ccccc32)cc1 (mixture of isomers) | 718 | 741 | 72.5 | – | – | – | – | –
36 | CN(C)c1ccc(/C=C/C=C2\C(=O)N(C)c3ccccc32)cc1 (mixture of isomers) | 229 | 56 | 63.7 | – | – | – | – | –
37 | CN(C)c1ccc(/C=C/C=C2\C(=O)N(Cc3ccccc3)c3ccccc32)cc1 (mixture of isomers) | 374 | 358 | 40.9 | – | – | – | – | –
38 | COc1ccc(CN2C(=O)/C(=C\C=C\c3ccc(N(C)C)cc3)c3ccccc32)cc1 (mixture of isomers) | 240 | 130 | 54.6 | – | – | – | – | –
39 | CN(C)c1ccc(/C=C/C=C2\C(=O)N(Cc3ccc([N+](=O)[O-])cc3)c3ccccc32)cc1 (mixture of isomers) | 90 | 92.4 | 4.2 | – | – | – | – | –
40 | CCOC(=O)N1C(=O)/C(=C\C=C\c2ccc(N(C)C)cc2)c2ccccc21 (mixture of isomers) | 263 | 84 | 45.3 | – | – | – | – | –
41 | CN(C)c1ccc(/C=C/C=C2\C(=O)N(Cc3ccccc3)c3ncccc32)cc1 (mixture of isomers) | 257 | 85.1 | 68.3 | – | – | – | – | –
42 | COc1ccc(CN2C(=O)/C(=C\C=C\c3ccc(N(C)C)cc3)c3cccnc32)cc1 (mixture of isomers) | 204 | 107 | 29.8 | – | – | – | – | –
43 | CN(C)c1ccc(/C=C/C=C2\C(=O)N(Cc3ccc(N)cc3)c3ccccc32)cc1 (mixture of isomers) | 131 | 98.9 | 43.6 | – | – | – | – | –
44 | CN(C)c1ccc(/C=C/C=C2\C(=O)N(c3ccccc3)c3ccccc32)cc1 (mixture of isomers) | 465 | 287 | 68.1 | – | – | – | – | –
45 | Nc1ccc(/C=C/C=C2\C(=O)Nc3ccccc32)cc1 (mixture of isomers) | 38.3 | 50.8 | 44.8 | – | – | – | – | –
46 | CN(C)c1ccc(/C=C2\C(=O)N(C)c3ccccc32)cc1 (mixture of isomers) | 618 | 155 | 508 | – | – | – | – | –
